The test deals with eNOS promoter. Put plainly: Activation of eNOS transcription (eNOS promoter-luciferase reporter gene assay). It counts as cell-based. As to conditions: human endothelial cell line stably transfected with eNOS promoter-luciferase construct; 18 h incubation; EC50 determined graphically from TIR vs concentration; read-out: eNOS transcription induction ratios EC50. On the procedure:
Determination of Activation of eNOS Transcription
Activation of eNOS transcription was determined as described in detail in Li et al., “Activation of protein kinase C alpha and/or epsilon enhances transcription of the human endothelial nitric oxide synthase gene”, Mol. Pharmacol. 53 (1998) 630, the content of which is incorporated herein by reference.
Briefly, a 3.5 kB long fragment 5′ of the starting codon of the eNOS gene was cloned, sequenced and cloned in firefly luciferase expression plasmids to monitor activation of the eNOS promoter by reporter gene activity. A human endothelial cell line stable transfected and expressing this promoter-reporter construct was used for compound testing. Cells were incubated for 18 h with compounds.
All compounds were dissolved in sterile dimethyl sulfoxide (DMSO). A final concentration of 0.5% DMSO in complete medium was allowed. Induction of reporter gene expression in these cells was measured using a standard luciferase assay system (Promega, Cat. No E150) according to the manufacturer's instructions. Luciferase induction in cells incubated with compounds were compared to those incubated with solvent alone. The ratio of both activities (transcription induction ratio, TIR) was plotted as a function of compound concentration. Typically, TIR values started at low concentrations at a ratio of 1, indicating no compound effect, and extended up to a maximum TIR value TIR(max) which indicates the increase of the eNOS transcription. EC50 values of transcription induction ratios as a function of compound concentration were determined graphically.
In the case of `Cc1nc(C)c(C(=O)N[C@@H]2C[C@H]2c2ccccc2)s1` (racemic) [Example 23], the EC50 was found to be 0.6 µM.

`Cc1nc(C)c(C(=O)N[C@@H]2C[C@H]2c2ccccc2)o1` (racemic) [Example 1]: the EC50 is 18 µM. Consider `O=C(NC1CC1c1ccccc1)c1cccc2[nH]ccc12` (racemic) [Example 31], for which the EC50 stood at 0.47 µM. In the case of `CN1CCN(c2cccc(C(=O)N[C@@H]3C[C@H]3c3ccccc3)c2)CC1` (racemic) [Example 15], the EC50 was 59 µM. Turning to `O=C(N[C@@H]1C[C@H]1c1ccccc1)c1ccc(F)cc1` (relative stereo) [Example 40, 4-Fluoro-N-(trans-2-phenylcyclopropyl)benzamide], the EC50 stood at 1.5 µM. With `COCc1ccc(C(=O)N[C@@H]2C[C@H]2c2ccccc2)cn1` (racemic) [Example 27], the EC50 was determined as 4.3 µM.

In the case of `O=C(N[C@@H]1C[C@H]1c1ccccc1)c1ccc(F)cc1` (relative stereo) [Example 39, 4-fluoro-N-(trans-2-phenylcyclopropyl)benzamide], the EC50 is 0.19 µM. Take `O=C(N[C@@H]1C[C@H]1c1ccccc1)c1cccc(N2CCCCC2)c1` (racemic) [Example 14]: the EC50 turned out to be 11 µM.

For `Cc1cc(C)c(C(=O)NC2CC2c2ccccc2)c(N)n1` (racemic) [Example 33], the EC50 was determined as 12 µM. Regarding `O=C(NC1CC1c1ccccc1)c1ccc(F)cc1F` (racemic) [Example 36], the EC50 stood at 0.31 µM. For the compound `Cc1ccc(C(=O)N[C@@H]2C[C@H]2c2ccccc2)c(C)n1` (racemic) [Example 4], the EC50 came to 0.33 µM. `Cc1cc(C(=O)N[C@@H]2C[C@H]2c2ccccc2)c(C)n1Cc1ccncc1` (racemic) [Example 22]: the EC50 amounted to 24 µM. For `CS(=O)(=O)Nc1cccc(C(=O)N[C@@H]2C[C@H]2c2ccccc2)c1` (racemic) [Example 8], the EC50 came out at 2 µM. Consider `Nc1nccnc1C(=O)N[C@@H]1C[C@H]1c1ccccc1` (racemic) [Example 28], for which the EC50 stood at 0.43 µM. Take `Cc1ccc(C(=O)N[C@@H]2C[C@H]2c2ccccc2)cn1` (racemic) [Example 25]: the EC50 stood at 1.1 µM. In the case of `Cc1nc(C2CC2)sc1C(=O)N[C@@H]1C[C@H]1c1ccccc1` (racemic) [Example 3], the EC50 was found to be 0.3 µM. With `Cc1ccc(C(=O)NC2CC2c2ccccc2)s1` (racemic) [Example 37], the EC50 worked out at 0.26 µM. Turning to `Nc1ncccc1C(=O)N[C@@H]1C[C@H]1c1ccccc1` (racemic) [Example 24], the EC50 amounted to 0.95 µM. `O=C(N[C@@H]1C[C@H]1c1ccccc1)c1ccc2cc[nH]c2c1` (racemic) [Example 29]: the EC50 stood at 0.1 µM.

Take `Cc1nc2ccc(C(=O)N[C@@H]3C[C@H]3c3ccccc3)cc2[nH]1` (racemic) [Example 18]: the EC50 is 0.33 µM.

With `O=C(N[C@@H]1C[C@H]1c1ccccc1)c1cnn(-c2ccccc2)c1C(F)(F)F` (racemic) [Example 21], the EC50 worked out at 0.24 µM. As for `O=C(N[C@@H]1C[C@H]1c1ccccc1)c1cnc2c(c1)CCCC2` (racemic) [Example 10], the EC50 stood at 5.1 µM. On to `O=C(N[C@@H]1C[C@H]1c1ccccc1)c1cccc(N2CCOCC2)c1` (racemic) [Example 16], for which the EC50 worked out at 32 µM. With `Cc1ccc(C(=O)N[C@@H]2C[C@H]2c2ccccc2)c(Cl)n1` (racemic) [Example 26], the EC50 is 0.29 µM. Turning to `COc1ccc(C(=O)N[C@@H]2C[C@H]2c2ccccc2)cn1` (racemic) [Example 11], the EC50 amounted to 0.78 µM. For the compound `O=C(NC1CC1c1ccccc1)c1ccc(Cl)s1` (racemic) [Example 38], the EC50 was found to be 0.23 µM. Regarding `Cc1nc(N)c(C(=O)N[C@@H]2C[C@H]2c2ccccc2)nc1C` (racemic) [Example 5], the EC50 was 0.16 µM. Next, `Cc1ncc(C(=O)N[C@@H]2C[C@H]2c2ccccc2)s1` (racemic) [Example 12]: 10 µM; `O=C(NC1CC1c1ccccc1)c1cccc(Cl)c1Cl` (racemic) [Example 34]: 1.2 µM. For the compound `Cc1ccc(C(=O)N[C@@H]2C[C@H]2c2ccccc2)cc1NS(C)(=O)=O` (racemic) [Example 7], the EC50 worked out at 1.8 µM. `O=C(N[C@@H]1C[C@H]1c1ccccc1)c1ccc2[nH]ccc2c1` (racemic) [Example 30]: the EC50 came out at 0.1 µM. In the case of `CC(C)S(=O)(=O)c1csc(C(=O)N[C@@H]2C[C@H]2c2ccccc2)c1Cl` (racemic) [Example 19] it was 0.45 µM; in that of `Cc1c(C(=O)N[C@@H]2C[C@H]2c2ccccc2)cnn1-c1ccccc1` (racemic) [Example 20], 0.11 µM; in that of `Cc1cc(C(=O)N[C@@H]2C[C@H]2c2ccccc2)c(C)n1Cc1cccs1` (racemic) [Example 17], < 0.01 µM. With `CN(C)c1cccc(C(=O)NC2CC2c2ccccc2)c1` (racemic) [Example 32], the EC50 came out at 1.8 µM. As for `O=C(N[C@@H]1C[C@H]1c1ccccc1)c1ccc(F)cc1` (relative stereo) [Example 41, 4-Fluoro-N-(trans-2-phenylcyclopropyl)benzamide], the EC50 was determined as 0.18 µM. In the case of `O=C(N[C@@H]1C[C@H]1c1ccccc1)c1ccc(N2CCOCC2)nc1` (racemic) [Example 9] it was 3.5 µM; in that of `O=C(N[C@@H]1C[C@H]1c1ccccc1)c1cccc(N2CCCC2)c1` (racemic) [Example 13], 1.3 µM.

Source of the values: patent publication US7186735B2, “Acylated arylcycloalkylamines and their use as pharmaceuticals” (Sanofi-Aventis Deutschland GmbH, priority 2002, dated 2007).
